{"source": "patent US12691107B2", "about": "“Methods for the treatment and prevention of lung infections caused by gram-positive bacteria, fungus, or virus by administration of tafenoquine” (priority 2020, dated 2026)", "key": {"Candida glabrata": {"test_system": "Candida glabrata", "experiment": "Antifungal MIC (RPMI-1640 microdilution)", "format": "cell-based"}, "Candida guilliermondii": {"test_system": "Candida guilliermondii", "experiment": "Antifungal MIC (RPMI-1640 microdilution)", "format": "cell-based", "settings": "Meyerozyma guilliermondii"}, "Coccidioides sp.": {"test_system": "Coccidioides sp.", "experiment": "microbe, parasite or virus in culture", "format": "cell-based"}, "Enterococcus faecalis": {"test_system": "Enterococcus faecalis", "experiment": "Antibacterial MIC (broth microdilution)", "format": "cell-based"}, "Vero E6 cells": {"test_system": "Vero E6 cells", "settings": "African green monkey"}}, "note": "Read-outs that look alike come from different tables or passages of the source.", "data": [{"smiles": "COc1cc(C)c2c(Oc3cccc(C(F)(F)F)c3)c(OC)cc(NC(C)CCCN)c2n1.O=C(O)CCC(=O)O", "note": "(stereo not drawn) [Tafenoquine Succinate]", "values": [{"measurement": "MIC50", "setting": "Candida glabrata; Nakaseomyces glabratus, read-out: MIC 50% inhibition, isolate 05-62", "value": 8, "unit": "µg/mL"}, {"measurement": "MIC50", "setting": "Candida glabrata; Nakaseomyces glabratus, read-out: MIC 50% inhibition, isolate 05-761", "value": 8, "unit": "µg/mL"}, {"measurement": "MIC50", "setting": "Candida glabrata; Nakaseomyces glabratus, read-out: MIC 50% inhibition, isolate CG3", "value": 8, "unit": "µg/mL"}, {"measurement": "MIC", "setting": "Candida glabrata; Nakaseomyces glabratus, read-out: MIC 100% inhibition, isolate 05-62", "value": 8, "unit": "µg/mL"}, {"measurement": "MIC 100% inhibition", "setting": "Candida glabrata; isolate 05-761", "value": 8, "unit": "µg/mL"}, {"measurement": "MIC 100% inhibition", "setting": "Candida glabrata; isolate CG3", "value": 8, "unit": "µg/mL"}, {"measurement": "MIC50", "setting": "Candida guilliermondii; read-out: MIC 50% inhibition, isolate Cgui1", "value": 2, "unit": "µg/mL"}, {"measurement": "MIC50", "setting": "Candida guilliermondii; read-out: MIC 50% inhibition, isolate Cgui2", "value": 2, "unit": "µg/mL"}, {"measurement": "MIC50", "setting": "Candida guilliermondii; read-out: MIC 50% inhibition, isolate Cgui3", "value": 4, "unit": "µg/mL"}, {"measurement": "MIC", "setting": "Candida guilliermondii; read-out: MIC 100% inhibition, isolate Cgui1", "value": 4, "unit": "µg/mL"}, {"measurement": "MIC", "setting": "Candida guilliermondii; read-out: MIC 100% inhibition, isolate Cgui2", "value": 2, "unit": "µg/mL"}, {"measurement": "MIC", "setting": "Candida guilliermondii; read-out: MIC 100% inhibition, isolate Cgui3", "value": 4, "unit": "µg/mL"}, {"measurement": "MIC50", "setting": "Coccidioides sp.; read-out: MIC 50% inhibition, isolate Cocci1", "value": 4, "unit": "µg/mL"}, {"measurement": "MIC50", "setting": "Coccidioides sp.; read-out: MIC 50% inhibition, isolate Cocci2", "value": 16, "unit": "µg/mL"}, {"measurement": "MIC50", "setting": "Coccidioides sp.; read-out: MIC 50% inhibition, isolate D117-143", "value": 16, "unit": "µg/mL"}, {"measurement": "MIC", "setting": "Coccidioides sp.; read-out: MIC 100% inhibition, isolate Cocci1", "value": 8, "unit": "µg/mL"}, {"measurement": "MIC", "setting": "Coccidioides sp.; read-out: MIC 100% inhibition, isolate Cocci2", "value": 16, "unit": "µg/mL"}, {"measurement": "MIC", "setting": "Coccidioides sp.; read-out: MIC 100% inhibition, isolate D117-143", "value": 16, "unit": "µg/mL"}, {"measurement": "MIC", "setting": "Enterococcus faecalis; ATCC29212, isolate ATCC 29212", "value": 8, "unit": "µg/mL"}, {"measurement": "MIC", "setting": "Enterococcus faecalis; isolate 1768", "value": 8, "unit": "µg/mL"}]}, {"smiles": "COc1cc(C)c2c(Oc3cccc(C(F)(F)F)c3)c(OC)cc(NC(C)CCCN)c2n1", "note": "(stereo not drawn) [Tafenoquine, N(4)-[2,6-Dimethoxy-4-methyl-5-[3-(trifluoromethyl)phenoxy]quinolin-8-yl]pentane-1,4-diamine]", "values": [{"measurement": "CC50", "setting": "Vero E6 cells", "value": 37.2, "unit": "µM"}]}]}
